# Measurements: patent publication EP2292225A1 (priority 1997, dated 1998)
# Experiments:
# [1] = test system: Vascular smooth muscle (BO54) cells; format: cell-based, baboon
# [2] = test system: vascular smooth muscle cells; format: in vivo, pig; details: 4 days post-trauma
# [3] = 7 day intravenous toxicity study; format: in vivo, rats; details: 10 µg/ml four times a day for 7 days (800 µg/kg daily)
# Protocol: To determine the metabolism of ^3H-cytochalasin B in human blood, ^3H-cytochalasin B (8 µg/ml) was dissolved in saline; 1:1 dilution of saline and human plasma; or 1:1 dilution of saline and human whole blood. […] Toxicity Studies. To determine the toxicity of cytochalasin B, rats (4 male and 4 female) were injected with 10 µg/ml cytochalasin B four times a day for 7 days (Table 11). Data regarding body weight changes, food consumption, food efficiency, hematology parameters, coagulation parameters, serum chemistry parameters, and gross necropsy findings were collected. […] There were no gross or microscopic changes detected in the heart to account for the elevation. Thus, daily administration of cytochalasin B to rats at a dose of 800 µg/kg (for a total injected dose of 5600 µg/kg) may have an effect on heart weight of female (but not male) rats. However, clotted blood was not routinely removed from the heart lumens prior to weighing the heart.
# [4] = Chronic (seven days) intravenous toxicity study; format: in vivo, Sprauge-Dawley rats; details: 10080 min
# Protocol: To determine the toxicity of chronic cytochalasin B administration, cytochalasin B was administered intravenously to Sprauge-Dawley rats for seven days (Table 12). Data regarding food consumption, body weights, hematology parameters, clinical chemistry parameters, coagulation profiles, organ weights, clinical observations, gross necropsy findings and histopathology were collected. […]
# [5] = Seven day intravenous toxicity study; format: in vivo, beagle dogs; details: seven consecutive days, 10080 min
# [6] = test system: Pig femoral arteries; assay: Biological stenting of balloon traumatized femoral arteries (luminal area morphometry); format: in vivo
# Protocol: Pig femoral arteries were traumatized as described in Example 7, and then treated with cytochalasin B. About 1.5 to about 2 ml of cytochalasin B at 0.1 µg/ml was infused into portions of the artery that had been separated from other portions by ligatures. The artery was then pressurized for 3 minutes and the fluid aspirated. Approximately 8 to about 30 lambda of the solution is retained in the interstitial space surrounding the cells in the tunica media. Ten femoral arteries (two arteries obtained from each of the 5 pigs that were treated according to the single dose protocol described in Example 7) were then evaluated histologically at 4 days or 3 weeks after cytochalasin B adminstration. The maximal luminal area of each artery was measured and calculated from digitized microscopic images by a BQ System IV computerized morphometric analysis system (R & M Biometrics, Inc., Nashville, TN). This experiment was repeated with 5 additional pigs (two arteries per pig; cytochalasin B dose = 0.1 µg/ml, applied for 3 minutes at 1 atm pressure; same time points). The data obtained from the two experiments were combined.
# The luminal area of the traumatized and cytochalasin B-treated segments of the arteries were also compared to the luminal area of the normal, untreated region of the femoral artery proximal to the test area.
# A cytochalasin B dose response study was then conducted on 10 pigs, following the experimental protocol described in Example 7. Briefly, both femoral arteries in each of 2 pigs were treated with one of the following doses of cytochalasin B: 0.0 µg/ml (i.e., PBS negative control); 0.01 µg/ml; 0.10 µg/ml; 1.0 µg/ml; and 10.0 µg/ml as described above. The agent was delivered by intraluminal catheter at 1 atm pressure for 3 minutes, and the arteries were evaluated 3 weeks later by the morphometric analysis system described above. The ratio of treated artery luminal area to proximal normal artery luminal area was determined as a percent change in treated vs. normal area, or the artery lumen size (diameter or cross sectional area) of treated arteries relative to traumatized but untreated arteries.
# Balloon traumatized swine femoral arteries from control and treated (0.1 µg/ml cytochalasin B) were evaluated at 1, 4, 7, 14, or 21 days after intervention. […] A two way analysis of variance indicated a statistically significant difference (p<.05) in the artery lumen areas over three weeks between the cytochalasin B treated and diluent control groups.
# [7] = test system: swine coronary arteries; assay: Swine Coronary Artery Study: MIC catheter infusion after embolectomy or over-sized PTCA balloon trauma, morphometry at 4 weeks; format: in vivo
# Protocol: Swine coronary arteries were also traumatized by embolectomy or over-sized PTCA balloon, and then 8-16 ml of cytochalasin B at 8.0 µg/ml was infused into the arterial wall with a MIC catheter to achieve a therapeutic dose. Controls included a diluent control and a traumatized untreated control, and all animals were sacrificed 4 weeks after intervention and coronary arteries were fixed by perfusion. Morphometry was performed on selected sections from proximal, treated and distal segments of coronary arteries (Table 15).
# The diameter of, or the area within, the EEL of the artery can be compared to controls as an indicator of the degree of vascular remodeling. The lack of a statistically significant increase in luminal area may be due to increased sample variablility, increased neointimal formation, and/or increased degree of trauma.
# [8] = test system: Vascular smooth muscle cells; details: 1 µg/ml; an anti-migration/contraction effective dose
# [9] = 8.0 µg/ml infused with MIC catheter after embolectomy or over-sized PTCA balloon trauma, sacrificed 4 weeks after intervention, mean
# [10] = 8-16 ml at 8.0 µg/ml, 4 weeks after intervention
smiles,measurement,setting,value
C=C1[C@@H](C)[C@H]2[C@H](Cc3ccccc3)NC(=O)[C@]23OC(=O)/C=C/[C@H](O)CCC[C@@H](C)C/C=C/[C@H]3[C@@H]1O [cytochalasin B],"minimum effective dose (MED), DNA assay",[1]; 5 minute exposure,10 µg/mL
same,therapeutic range (area under the curve of ^3H-leucine assay greater than ^3H-thymidine assay),"[1]; 24 hour assays, 5% FBS",available therapeutic range
same,"minimum effective dose (MED), DNA synthesis assay",[1]; 24 hour exposure,0.1 µg/mL
same,BRDU labeling grade,[2],4 (4 = > 10/HPF)
same,only parameter which suggested an adverse effect,[3],elevation of the mean relative heart weight in treated female animals
same,dose without any indication of adverse effects or toxicity,[4],up to 600 µg/kg/day
same,dose without any indication of adverse effects or toxicity,[5],up to 648 µg/kg/day
same,percent change in treated vs. normal luminal area,"[6]; 0.1 µg/ml, 1 atm for 3 minutes, 3 weeks later",~140%
same,artery lumen area over three weeks,"[6]; 0.1 µg/ml, 1, 4, 7, 14, or 21 days after intervention",sustained dilation which changed very little between days 7 and 21
same,luminal area compared to other test agents or controls,"[6]; 0.1 µg/ml, 4 day and 3 week post-treatment",larger luminal area
same,toxicity,[6]; at 10 µg/ml,no evidence of toxicity
same,threshold level of the therapeutic effect,[6]; no effect below this dose,0.1 µg/mL
same,lumen area in the test region compared to the normal control segment of the same artery,"[6]; pig, in vivo",approximately two times as large
same,Neointimal Area,[7]; [9],1.56
same,luminal area,[7]; [9],0.58
same,arterial area bounded by the external elastic lamina,[7]; [10],trend toward beneficial arterial remodeling
same,luminal area,[7]; [10],did not result in a statistically significant increase in luminal area
same,Arterial Area,"[7]; area bounded by external elastic lamina, 8.0 µg/ml infused with MIC catheter, sacrificed 4 weeks after intervention, mean",1.80
same,cytotoxicity grade,[8],1
